Reference: US8691864B2, “Agents useful for reducing amyloid precursor protein and treating dementia and methods of use thereof” (priority 2000, dated 2014)

Assays:
secreted APP = experiment: ELISA for secreted APP in SHSY5Y cells; assay type: cell-based, human; details: 16 hours
Description: (§1) An enzyme-linked immunosorbent assay was developed to detect secreted APP in SHSY5Y cells, a human neuroblastoma cell line. The purpose of the screen was to discover small molecules that inhibit APP protein synthesis in SHSY5Y cells. SHSY5Y cells were plated at 1×10^5 cells/well in […] of DMEM containing 0.5% heat inactivated FBS in 96 well tissue culture treated plates (Falcon no. 35 3072). 144 MES compounds were tested at final concentrations of […] in 0.1% DMSO. Compounds were added and the plates incubated for 16 hours at 37° C./5% CO2. Maxisorp plates (Nunc no. 437958) were coated overnight with […] capture antibody (Biosource 44-100) diluted in Ca^++ and Mg^++ free PBS. Biosource 44-100 is a mouse mAb that recognizes aa 1-100 of human APP. Plates were blocked for 30 minutes with 1 mg/mL BSA in Ca^++ and Mg^++ free PBS. Plates were washed 3× with wash buffer (Ca^++ and Mg^++ free PBS+0.01% Tween20). […] of supernatants and non-cultured medium controls were transferred from culture plates to ELISA plates. Culture plates were reserved for toxicity analysis. Supernatants were incubated for 4 hours at RT on a plate shaker. After supernatant incubation, plates were washed 3×. Primary antibody (Signet Clone 6E-10 biotin) was added at 0.3125 mg/mL and incubated overnight at 4° C. The recognition site of 6E-10 is aa 1-17 of Ab. For detection, a 1:3000 dilution of horseradish peroxidase conjugated streptavidin (Endogen no. N-100) was incubated for 30 minutes. Plates were washed 3×. Enzyme activity was assessed by incubation with […] TMB substrate solution (Moss no. TMB-US) for 20 minutes. The reaction was stopped by the addition of […] 0.18M sulfuric acid. Optical density was read at 450 nm on Wallac Victor2 plate reader. During the first incubation, toxicity was determined using MTS assay, Cell Titer96 AQ reagent (Promega no. G5430). The background values from the non-cultured medium control were subtracted from the sample values and secreted APP levels and toxicity were expressed as % vehicle control. Of the 144 MES compounds screened, 12 inhibited secreted APP as determined by ELISA. The results are depicted in FIGS. 13A-M.
(§2) Using the experimental procedure outlined above, APP secretion and toxicity studies were performed on several other non-carbamate compounds, and the results are shown in Tables 3 and 4. The compound structures are provided in Table 2 in the application, which are identified by their MES number.

SH-SY-5Y Cells = experiment: MTS toxicity assay in SHSY5Y cells; assay type: cell-based, human
Description: as §1, §2

| SMILES | APP Secretion by SH-SY-5Y Cells (secreted APP; Dose 2 uM) | APP Secretion by SH-SY-5Y Cells (secreted APP; Dose 6 uM) | APP Secretion by SH-SY-5Y Cells (secreted APP; Dose 20 uM) | APP Toxicity SH-SY-5Y Cells (MTS assay) (SH-SY-5Y Cells; Dose 2 uM) | APP Toxicity SH-SY-5Y Cells (MTS assay) (SH-SY-5Y Cells; Dose 6 uM) | APP Toxicity SH-SY-5Y Cells (MTS assay) (SH-SY-5Y Cells; Dose 20 uM) | APP Secretion by SH-SY-5Y Cells (secreted APP; Dose 0.08 uM) | APP Secretion by SH-SY-5Y Cells (secreted APP; Dose 0.25 uM) | APP Secretion by SH-SY-5Y Cells (secreted APP; Dose 0.74 uM) | APP Toxicity SH-SY-5Y Cells (MTS assay) (SH-SY-5Y Cells; Dose 0.08 uM) | APP Toxicity SH-SY-5Y Cells (MTS assay) (SH-SY-5Y Cells; Dose 0.25 uM) | APP Toxicity SH-SY-5Y Cells (MTS assay) (SH-SY-5Y Cells; Dose 0.74 uM) |
| --- | --- | --- | --- | --- | --- | --- | --- | --- | --- | --- | --- | --- |
| COc1ccc2c(c1)[C@@](C)(CC#N)C(=O)N2C [MES 9227] | 101.15 % vehicle control | 99.45 % vehicle control | 120.5 % vehicle control | 103.7 % vehicle control | 99.27 % vehicle control | 96.07 % vehicle control |  |  |  |  |  |  |
| CN1CC[C@@]2(C)c3cc(O)ccc3N(C)C2NC1=O (single isomer, unassigned; (-)) [MES 9205] | 96.73 % vehicle control | 96.9 % vehicle control | 22.17 % vehicle control | 97.9 % vehicle control | 97.73 % vehicle control | 33.33 % vehicle control | 115.1 % vehicle control | 107.4 % vehicle control | 114.7 % vehicle control | 108.7 % vehicle control | 105.8 % vehicle control | 105.6 % vehicle control |
| C=CCO[C@H](c1ccnc2ccccc12)C1CC2CC[N+]1(Cc1c3ccccc3cc3ccccc13)CC2C=C.[Br-] (stereo partly drawn) [MES 9257] | 111.2 % vehicle control | 98.9 % vehicle control | 99.03 % vehicle control | 100.5 % vehicle control | 98.77 % vehicle control | 100 % vehicle control |  |  |  |  |  |  |
| CC(Br)C(=O)N(C)c1ccc(O)cc1 (stereo not drawn) [MES 9291, Propionanilde] | 100.1 % vehicle control | 96.9 % vehicle control | 67.8 % vehicle control | 102.4 % vehicle control | 99.87 % vehicle control | 99 % vehicle control | 98.2 % vehicle control | 99.5 % vehicle control | 99.7 % vehicle control | 99.1 % vehicle control | 100.5 % vehicle control | 97.1 % vehicle control |
| COc1ccc2c(c1)C1(C)CCN(C)C1N2 (stereo not drawn) [MES 9201] | 97.25 % vehicle control | 110.75 % vehicle control | 124.65 % vehicle control | 98.9 % vehicle control | 98.65 % vehicle control | 98.25 % vehicle control |  |  |  |  |  |  |
| COc1ccc2c(c1)[C@@](C)(CCN(C)C)C(=O)N2C [MES 9310] | 104.8 % vehicle control | 97.85 % vehicle control | 98.95 % vehicle control | 101.85 % vehicle control | 99.9 % vehicle control | 97.7 % vehicle control |  |  |  |  |  |  |
| CN1CC[C@@]2(C)C3=CC(=O)C(=O)C=C3N(C)C12 (stereo partly drawn) [MES 9225] | 110.45 % vehicle control | 109.2 % vehicle control | 59.75 % vehicle control | 104.6 % vehicle control | 100.1 % vehicle control | 66.5 % vehicle control |  |  |  |  |  |  |
